22 molecules from US20200216439A1, “HETERO-1,5,6,7-TETRAHYDRO-4H-INDOL-4-ONES” (BAYER PHARMA AKTIENGESELLSCHAFT, priority 2015, published 2020) can be followed below.

The target in this experiment is T1, catalytic domain of human Bub1 (amino acids 704-1085) (Homo sapiens, UniProt O43683).
T1 construct: catalytic domain of human Bub1 (amino acids 704-1085); His6 (N); made in house; host or cells: Hi5 insect cells
T1 sequence (O43683 704-1085): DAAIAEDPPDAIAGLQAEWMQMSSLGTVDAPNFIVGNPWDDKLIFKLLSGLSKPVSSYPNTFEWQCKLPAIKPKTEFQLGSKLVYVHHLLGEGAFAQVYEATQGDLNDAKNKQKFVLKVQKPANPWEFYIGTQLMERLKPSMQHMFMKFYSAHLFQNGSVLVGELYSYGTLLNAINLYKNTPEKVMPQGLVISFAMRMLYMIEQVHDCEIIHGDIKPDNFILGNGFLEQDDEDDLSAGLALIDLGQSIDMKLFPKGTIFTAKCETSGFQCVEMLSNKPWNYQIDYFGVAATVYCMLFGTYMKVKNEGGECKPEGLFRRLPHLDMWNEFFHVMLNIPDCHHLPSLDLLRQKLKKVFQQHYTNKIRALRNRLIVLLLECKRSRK
As to the kind of experiment: Bub1 kinase assay (TR-FRET). The class given is biochemical. The settings on record: TR-FRET; ATP 10 μM, peptide substrate 1 μM; 60 min at 22° C.; average or median if tested more than once; read-out: Inhibition of Bub1 kinase IC50. From the text: Bub1-inhibitory activities of compounds described in the present invention were quantified using a time-resolved fluorescence energy transfer (TR-FRET) kinase assay which measures phosphorylation of the synthetic peptide Biotin-Ahx-VLLPKKSFAEPG (C-terminus in amide form), purchased from e.g. Biosyntan (Berlin, Germany) by the (recombinant) catalytic domain of human Bub1 (amino acids 704-1085), expressed in Hi5 insect cells with an N-terminal His6-tag and purified by affinity—(Ni-NTA) and size exclusion chromatography.
In a typical assay 11 different concentrations of each compound (0.1 nM, 0.33 nM, 1.1 nM, 3.8 nM, 13 nM, 44 nM, 0.15 μM, 0.51 μM, 1.7 μM, 5.9 μM and 20 μM) were tested in duplicate within the same microtiter plate. To this end, 100-fold concentrated compound solutions (in DMSO) were previously prepared by serial dilution (1:3.4) of 2 mM stocks in a clear low volume 384-well source microtiter plate (Greiner Bio-One, Frickenhausen, Germany), from which 50 nl of compounds were transferred into a black low volume test microtiter plate from the same supplier. Subsequently, 2 μL of Bub1 (the final concentration of Bub1 was adjusted depending on the activity of the enzyme lot in order to be within the linear dynamic range of the assay: typically ˜200 ng/mL were used) in aqueous assay buffer [50 mM Tris/HCl pH 7.5, 10 mM magnesium chloride (MgCl2), 200 mM potassium chloride (KCl), 1.0 mM dithiothreitol (DTT), 0.1 mM sodium ortho-vanadate, 1% (v/v) glycerol, 0.01% (w/v) bovine serum albumine (BSA), 0.005% (v/v) Trition X-100 (Sigma), 1× Complete EDTA-free protease inhibitor mixture (Roche)] were added to the compounds in the test plate and the mixture was incubated for 15 min at 22° C. to allow pre-equilibration of the putative enzyme-inhibitor complexes before the start of the kinase reaction, which was initiated by the addition of 3 μL 1.67-fold concentrated solution (in assay buffer) of adenosine-tri-phosphate (ATP, 10 μM final concentration) and peptide substrate (1 μM final concentration). The resulting mixture (5 μL final volume) was incubated at 22° C. during 60 min., and the reaction was stopped by the addition of 5 μL of an aqueous EDTA-solution (50 mM EDTA, in 100 mM HEPES pH 7.5 and 0.2% (w/v) bovine serum albumin) which also contained the TR-FRET detection reagents (0.2 μM streptavidin-XL665 [Cisbio Bioassays, Codolet, France] and 1 nM anti-phospho-Serine antibody [Merck Millipore, cat. #35-002] and 0.4 nM LANCE EU-W1024 labeled anti-mouse IgG antibody [Perkin-Elmer, product no. AD0077, alternatively a Terbium-cryptate-labeled anti-mouse IgG antibody from Cisbio Bioassays can be used]). The stopped reaction mixture was further incubated 1 h at 22° C. in order to allow the formation of complexes between peptides and detection reagents. Subsequently, the amount of product was evaluated by measurement of the resonance energy transfer from the Eu-chelate-antibody complex recognizing the Phosphoserine residue to the streptavidin-XL665 bound to the biotin moiety of the peptide. To this end, the fluorescence emissions at 620 nm and 665 nm after excitation at 330-350 nm were measured in a TR-FRET plate reader, e.g. a Rubystar or Pherastar (both from BMG Labtechnologies, Offenburg, Germany) or a Viewlux (Perkin-Elmer) and the ratio of the emissions (665 nm/[…]) was taken as indicator for the amount of phosphorylated substrate. The data were normalised using two sets of control wells for high—(=enzyme reaction without inhibitor=0%=Minimum inhibition) and low—(=all assay components without enzyme=100%=Maximum inhibition) Bub1 activity. IC50 values were calculated by fitting the normalized inhibition data to a 4-parameter logistic equation (Minimum, Maximum, IC50, Hill; Y=Max+(Min−Max)/(1+(X/IC50)Hill)).
Background: In TR-FRET formats the signal depends on donor and acceptor labels being close together.
Usually IC50 stands for the concentration at which inhibition is half-maximal. Consider `COc1cc(C(=O)Nc2cc(-c3[nH]c4c(c3Nc3ccccc3)C(=O)CN(S(=O)(=O)N(C)C)C4)ccn2)ccc1F` [Example 259, N-4-[6-(Dimethylsulfamoyl)-4-oxo-3-(phenylamino)-4,5,6,7-tetrahydro-1H-pyrrolo[2,3-c]pyridin-2-yl]pyridin-2-yl-4-fluoro-3-methoxybenzamide], for which the IC50 worked out at 3 nM. To `O=C1CN(S(=O)(=O)c2cnc[nH]2)Cc2[nH]c(-c3ccnc(NC(=O)[C@@H]4C[C@@H]4F)c3)c(Nc3ccccc3)c21` [Example 204, (1S,2S)-2-Fluoro-N-4-[6-(1H-imidazol-5-ylsulfonyl)-4-oxo-3-(phenylamino)-4,5,6,7-tetrahydro-1H-pyrrolo[2,3-c]pyridin-2-yl]pyridin-2-ylcyclopropanecarboxamide] belongs 3 nM; to `COc1ccc(C(=O)Nc2cc(-c3[nH]c4c(c3Nc3ccccc3)C(=O)CN(C(=O)N3CCCC3)C4)ccn2)cc1F` [Example 293, 3-Fluoro-4-methoxy-N-4-[4-oxo-3-(phenylamino)-6-(pyrrolidin-1-ylcarbonyl)-4,5,6,7-tetrahydro-1H-pyrrolo[2,3-c]pyridin-2-yl]pyridin-2-ylbenzamide], 10 nM. Take `CC(=O)N1CC(=O)c2c([nH]c(-c3ccncc3OCC(F)(F)F)c2Nc2ccccc2)C1` [Example 229, 6-Acetyl-3-(phenylamino)-2-[3-(2,2,2-trifluoroethoxy)pyridin-4-yl]-1,5,6,7-tetrahydro-4H-pyrrolo[2,3-c]pyridin-4-one]: the 50% inhibitory concentration (IC50) was 163 nM. For `COCCOc1cnccc1-c1[nH]c2c(c1Nc1ccccc1)C(=O)CN(C(C)=O)C2` [Example 230, 6-Acetyl-2-[3-(2-methoxyethoxy)pyridin-4-yl]-3-(phenylamino)-1,5,6,7-tetrahydro-4H-pyrrolo[2,3-c]pyridin-4-one] the value was 16 nM; for `CC(=O)Nc1cc(-c2[nH]c3c(c2Nc2ccccc2)C(=O)CN(C(=O)C(C)C(F)(F)F)C3)ccn1` (racemic) [Example 178, N-(4-{3-Anilino-4-oxo-6-[(2RS)-3,3,3-trifluoro-2-methylpropanoyl]-4,5,6,7-tetrahydro-1H-pyrrolo[2,3-c]pyridin-2-yl}pyridin-2-yl)acetamide], 5 nM.

Regarding `CC(=O)Nc1cc(-c2[nH]c3c(c2Nc2ccccc2)C(=O)CN(C(=O)c2cccnc2)C3)ccn1` [Example 115, N-{4-[4-Oxo-3-(phenylamino)-6-(pyridin-3-ylcarbonyl)-4,5,6,7-tetrahydro-1H-pyrrolo[2,3-c]pyridin-2-yl]pyridin-2-yl}acetamide], the IC50 is 45 nM. For `COc1cc(C(=O)Nc2cc(-c3[nH]c4c(c3Nc3ccccc3)C(=O)COC4)ccn2)ccc1F` [Example 140, N-[4-(3-Anilino-4-oxo-1,4,5,7-tetrahydropyrano[3,4-b]pyrrol-2-yl)pyridin-2-yl]-4-fluoro-3-methoxybenzamide] the value was 31 nM; for `O=C1COCc2[nH]c(-c3ccncc3Br)c(Nc3ccccc3)c21` [Example 41, 2-(3-Bromopyridin-4-yl)-3-(phenylamino)-1,7-dihydropyrano[3,4-b]pyrrol-4(5H)-one], 233 nM. For `CC(=O)Nc1cc(-c2[nH]c3c(c2Nc2ccccc2)C(=O)CN(S(=O)(=O)c2cnc[nH]2)C3)ccn1` [Example 117, N-{4-[6-(1H-Imidazol-5-ylsulfonyl)-4-oxo-3-(phenylamino)-4,5,6,7-tetrahydro-1H-pyrrolo[2,3-c]pyridin-2-yl]pyridin-2-yl}acetamide] the value was 9 nM; for `CC(C)(C)OC(=O)N1CC(=O)c2c([nH]c(-c3ccnc(N)c3)c2Nc2ccc(F)cc2)C1` [Example 296, tert-Butyl 2-(2-aminopyridin-4-yl)-3-[(4-fluorophenyl)amino]-4-oxo-1,4,5,7-tetrahydro-6H-pyrrolo[2,3-c]pyridine-6-carboxylate], 172 nM; for `CC(=O)Nc1cc(-c2[nH]c3c(c2Nc2ccccc2)C(=O)CN(C(=O)C2CC2)C3)ccn1` [Example 30, N-{4-[6-(Cyclopropylcarbonyl)-4-oxo-3-(phenylamino)-4,5,6,7-tetrahydro-1H-pyrrolo[2,3-c]pyridin-2-yl]pyridin-2-yl}acetamide], 7 nM. Take `COCC(=O)Nc1cc(-c2[nH]c3c(c2Nc2ccccc2)C(=O)COC3)ccn1` [Example 45, 2-Methoxy-N-{4-[4-oxo-3-(phenylamino)-1,4,5,7-tetrahydropyrano[3,4-b]pyrrol-2-yl]pyridin-2-yl}acetamide]: the IC50 is 59 nM. To `O=C1CN(S(=O)(=O)c2cnc[nH]2)Cc2[nH]c(-c3ccnc(NC(=O)[C@H]4C[C@H]4F)c3)c(Nc3ccccc3)c21` (relative stereo) [Example 163, rel-(1R,2R)—N-{4-[3-Anilino-6-(1H-imidazol-5-ylsulfonyl)-4-oxo-4,5,6,7-tetrahydro-1H-pyrrolo[2,3-c]pyridin-2-yl]pyridin-2-yl}-2-fluorocyclopropanecarboxamide] belongs 6 nM; to `COc1cc(C(=O)Nc2cc(-c3[nH]c4c(c3Nc3ccccc3)C(=O)CN(C(=O)SC(C)(C)C)C4)ccn2)ccc1F` [Example 306, S-tert-butyl 3-anilino-2-{2-[(4-fluoro-3-methoxybenzoyl)amino]pyridin-4-yl}-4-oxo-1,4,5,7-tetrahydro-6H-pyrrolo[2,3-c]pyridine-6-carbothioate], 171 nM; to `CN(C)S(=O)(=O)N1CC(=O)c2c([nH]c(-c3ccnc(NC(=O)[C@@H]4C[C@@H]4F)c3)c2Nc2ccccc2)C1` [Example 272, (1S,2S)—N-4-[6-(Dimethylsulfamoyl)-4-oxo-3-(phenylamino)-4,5,6,7-tetrahydro-1H-pyrrolo[2,3-c]pyridin-2-yl]pyridin-2-yl-2-fluorocyclopropanecarboxamide], 4 nM. On to `O=C1CN(S(=O)(=O)c2cccnc2)Cc2[nH]c(-c3ccncc3)c(Nc3ccccc3)c21` [Example 75, 3-(phenylamino)-2-(pyridin-4-yl)-6-(pyridin-3-ylsulfonyl)-1,5,6,7-tetrahydro-4H-pyrrolo[2,3-c]pyridin-4-one], for which the IC50 turned out to be 6 nM.

For the molecule `CC(=O)N1CC(=O)c2c([nH]c(-c3ccncc3OCC3CC3)c2Nc2ccccc2)C1` [Example 231, 6-Acetyl-2-[3-(cyclopropylmethoxy)pyridin-4-yl]-3-(phenylamino)-1,5,6,7-tetrahydro-4H-pyrrolo[2,3-c]pyridin-4-one], the IC50 is 40 nM.

Regarding `O=C1CNCc2[nH]c(-c3ccncc3)c(Nc3ccccc3)c21` [Example 14], the 50% inhibitory concentration (IC50) is 47 nM.

On to `CSCCC(=O)N1CC(=O)c2c([nH]c(-c3ccnc(NC(C)=O)c3)c2Nc2ccccc2)C1` [Example 192], for which the IC50 was found to be 30 nM. Consider `CNC(=O)N1CC(=O)c2c([nH]c(-c3ccnc(NC(C)=O)c3)c2Nc2ccc(C)cc2)C1` [Example 320, 2-[2-(Acetylamino)pyridin-4-yl]-N-methyl-3-[(4-methylphenyl)amino]-4-oxo-1,4,5,7-tetrahydro-6H-pyrrolo[2,3-c]pyridine-6-carboxamide], for which the IC50 is 178 nM.

Take `COC(=O)N1CC(=O)c2c([nH]c(-c3ccnc(NC(=O)C4(F)CC4)c3)c2Nc2ccccc2)C1` [Example 147, Methyl 3-anilino-2-{2-([(1-fluorocyclopropyl)carbonyl]amino}pyridin-4-yl)-4-oxo-1,4,5,7-tetrahydro-6H-pyrrolo[2,3-c]pyridine-6-carboxylate]: the IC50 was 8 nM.
